Test results: the NIST ThermoML archive (doi:10.1016/j.jct.2016.06.034)
± gives the expanded uncertainty stated by the source.

Test: mn = molality of the nth substance listed, in mol/kg
Conditions: for electrical conductivity / speed of sound / mass density: 84.5 kPa, Liquid; for electrical conductivity: Alternating current cell with electrodes; for speed of sound: Frequency=3 MHz, Sing-around technique in a fixed-path interferometer; for mass density: Vibrating tube method; for surface tension liquid-gas: platinum plate method

CCCCCCCCCCn1cc[n+](C)c1.[Br-] [1-decyl-3-methylimidazolium bromide] + O
electrical conductivity (288.15 K, m1 = 1e-05): 0.000112 S/m | electrical conductivity (288.15 K, m1 = 2e-05): 0.000223 S/m | electrical conductivity (288.15 K, m1 = 4e-05): 0.000329 S/m | electrical conductivity (288.15 K, m1 = 5e-05): 0.000442 S/m | electrical conductivity (288.15 K, m1 = 8e-05): 0.000678 S/m | electrical conductivity (288.15 K, m1 = 0.00012): 0.00103 S/m | electrical conductivity (288.15 K, m1 = 0.00018): 0.00151 S/m | electrical conductivity (288.15 K, m1 = 0.00026): 0.00212 ± 0.0035 S/m | electrical conductivity (288.15 K, m1 = 0.00033): 0.00273 ± 0.0034 S/m | electrical conductivity (288.15 K, m1 = 0.00044): 0.00357 ± 0.0034 S/m | electrical conductivity (288.15 K, m1 = 0.00056): 0.00455 ± 0.0035 S/m | electrical conductivity (288.15 K, m1 = 0.00075): 0.006 ± 0.0034 S/m | electrical conductivity (288.15 K, m1 = 0.00098): 0.00777 ± 0.0034 S/m | electrical conductivity (288.15 K, m1 = 0.00127): 0.01 ± 0.0034 S/m | electrical conductivity (288.15 K, m1 = 0.00152): 0.0119 ± 0.0033 S/m | electrical conductivity (288.15 K, m1 = 0.0021): 0.0163 ± 0.0034 S/m | electrical conductivity (288.15 K, m1 = 0.00279): 0.0217 ± 0.0034 S/m | electrical conductivity (288.15 K, m1 = 0.00349): 0.027 ± 0.0033 S/m | electrical conductivity (288.15 K, m1 = 0.00439): 0.0336 ± 0.0032 S/m | electrical conductivity (288.15 K, m1 = 0.00754): 0.0559 ± 0.0031 S/m | electrical conductivity (288.15 K, m1 = 0.01045): 0.0758 ± 0.0031 S/m | electrical conductivity (288.15 K, m1 = 0.01291): 0.0921 ± 0.0031 S/m | electrical conductivity (288.15 K, m1 = 0.01562): 0.11 ± 0.0031 S/m | electrical conductivity (288.15 K, m1 = 0.01821): 0.126 ± 0.0032 S/m | electrical conductivity (288.15 K, m1 = 0.0208): 0.143 ± 0.0032 S/m | electrical conductivity (288.15 K, m1 = 0.02334): 0.158 ± 0.0033 S/m | electrical conductivity (288.15 K, m1 = 0.0258): 0.173 ± 0.0034 S/m | electrical conductivity (288.15 K, m1 = 0.02825): 0.188 ± 0.0034 S/m | electrical conductivity (288.15 K, m1 = 0.03047): 0.2 ± 0.0035 S/m | electrical conductivity (288.15 K, m1 = 0.03259): 0.212 ± 0.0036 S/m | electrical conductivity (288.15 K, m1 = 0.03462): 0.224 ± 0.0037 S/m | electrical conductivity (288.15 K, m1 = 0.03662): 0.236 ± 0.0037 S/m | electrical conductivity (288.15 K, m1 = 0.03965): 0.252 ± 0.0038 S/m | electrical conductivity (288.15 K, m1 = 0.04174): 0.262 ± 0.0038 S/m | electrical conductivity (288.15 K, m1 = 0.04366): 0.27 ± 0.0037 S/m | electrical conductivity (288.15 K, m1 = 0.04517): 0.275 ± 0.0035 S/m | electrical conductivity (288.15 K, m1 = 0.04687): 0.28 ± 0.0035 S/m | electrical conductivity (288.15 K, m1 = 0.04895): 0.285 ± 0.0036 S/m | electrical conductivity (288.15 K, m1 = 0.05102): 0.289 ± 0.0036 S/m | electrical conductivity (288.15 K, m1 = 0.05341): 0.294 ± 0.0037 S/m | electrical conductivity (288.15 K, m1 = 0.05563): 0.298 ± 0.0037 S/m | electrical conductivity (288.15 K, m1 = 0.05739): 0.301 ± 0.0037 S/m | electrical conductivity (288.15 K, m1 = 0.05949): 0.306 ± 0.0038 S/m | electrical conductivity (288.15 K, m1 = 0.06232): 0.311 ± 0.0038 S/m | speed of sound (288.15 K, m1 = 0.0095): 1468.8 ± 1.2 m/s | speed of sound (288.15 K, m1 = 0.01379): 1469.8 ± 1.2 m/s | speed of sound (288.15 K, m1 = 0.01652): 1470.4 ± 1.2 m/s | speed of sound (288.15 K, m1 = 0.02179): 1471.6 ± 1.2 m/s | speed of sound (288.15 K, m1 = 0.02615): 1472.5 ± 1.2 m/s | speed of sound (288.15 K, m1 = 0.03106): 1473.5 ± 1.2 m/s | speed of sound (288.15 K, m1 = 0.03338): 1474 ± 1.2 m/s | speed of sound (288.15 K, m1 = 0.03819): 1475 ± 1.2 m/s | speed of sound (288.15 K, m1 = 0.0406): 1475.3 ± 1.2 m/s | speed of sound (288.15 K, m1 = 0.04332): 1475.6 ± 1.2 m/s | speed of sound (288.15 K, m1 = 0.04614): 1476 ± 1.2 m/s | speed of sound (288.15 K, m1 = 0.05515): 1476.4 ± 1.2 m/s | speed of sound (288.15 K, m1 = 0.06396): 1476.7 ± 1.2 m/s | speed of sound (288.15 K, m1 = 0.07815): 1477 ± 1.2 m/s | speed of sound (288.15 K, m1 = 0.122): 1477.9 ± 1.2 m/s | speed of sound (288.15 K, m1 = 0.1726): 1478.9 ± 1.2 m/s | speed of sound (288.15 K, m1 = 0.2247): 1480 ± 1.2 m/s | speed of sound (288.15 K, m1 = 0.2539): 1480.6 ± 1.2 m/s | mass density (288.15 K, m1 = 0.0095): 999.502 ± 0.11 kg/m3 | mass density (288.15 K, m1 = 0.01379): 999.684 ± 0.11 kg/m3 | mass density (288.15 K, m1 = 0.01652): 999.799 ± 0.11 kg/m3 | mass density (288.15 K, m1 = 0.02179): 1000.02 ± 0.11 kg/m3 | mass density (288.15 K, m1 = 0.02615): 1000.2 ± 0.11 kg/m3 | mass density (288.15 K, m1 = 0.03106): 1000.41 ± 0.11 kg/m3 | mass density (288.15 K, m1 = 0.03338): 1000.51 ± 0.11 kg/m3 | mass density (288.15 K, m1 = 0.03819): 1000.71 ± 0.11 kg/m3 | mass density (288.15 K, m1 = 0.0406): 1000.81 ± 0.11 kg/m3 | mass density (288.15 K, m1 = 0.04332): 1000.92 ± 0.11 kg/m3 | mass density (288.15 K, m1 = 0.04614): 1001.03 ± 0.11 kg/m3 | mass density (288.15 K, m1 = 0.05515): 1001.35 ± 0.11 kg/m3 | mass density (288.15 K, m1 = 0.06396): 1001.66 ± 0.11 kg/m3 | mass density (288.15 K, m1 = 0.07815): 1002.15 ± 0.11 kg/m3 | mass density (288.15 K, m1 = 0.122): 1003.65 ± 0.11 kg/m3 | mass density (288.15 K, m1 = 0.1726): 1005.33 ± 0.11 kg/m3 | mass density (288.15 K, m1 = 0.2247): 1007.03 ± 0.11 kg/m3 | mass density (288.15 K, m1 = 0.2539): 1007.95 ± 0.11 kg/m3 | surface tension liquid-gas (293.15 K, m1 = 0.00805): 56.25 ± 0.44 mN/m | surface tension liquid-gas (293.15 K, m1 = 0.01202): 52.74 ± 0.42 mN/m | surface tension liquid-gas (293.15 K, m1 = 0.01627): 49.46 ± 0.39 mN/m | surface tension liquid-gas (293.15 K, m1 = 0.02206): 45.32 ± 0.36 mN/m | surface tension liquid-gas (293.15 K, m1 = 0.02718): 42.2 ± 0.33 mN/m | surface tension liquid-gas (293.15 K, m1 = 0.03028): 40.63 ± 0.29 mN/m | surface tension liquid-gas (293.15 K, m1 = 0.03568): 38.17 ± 0.25 mN/m | surface tension liquid-gas (293.15 K, m1 = 0.03969): 37.78 ± 0.21 mN/m | surface tension liquid-gas (293.15 K, m1 = 0.04205): 37.64 ± 0.2 mN/m | surface tension liquid-gas (293.15 K, m1 = 0.04444): 37.78 ± 0.21 mN/m | surface tension liquid-gas (293.15 K, m1 = 0.04581): 37.96 ± 0.22 mN/m | surface tension liquid-gas (293.15 K, m1 = 0.04833): 38.56 ± 0.23 mN/m | surface tension liquid-gas (293.15 K, m1 = 0.06141): 39.32 ± 0.2 mN/m | surface tension liquid-gas (293.15 K, m1 = 0.0858): 39.48 ± 0.21 mN/m | surface tension liquid-gas (293.15 K, m1 = 0.1481): 39.36 ± 0.21 mN/m | surface tension liquid-gas (293.15 K, m1 = 0.1979): 39.38 ± 0.21 mN/m | electrical conductivity (293.15 K, m1 = 1e-05): 0.00016 S/m | electrical conductivity (293.15 K, m1 = 3e-05): 0.000289 S/m | electrical conductivity (293.15 K, m1 = 6e-05): 0.000554 S/m | electrical conductivity (293.15 K, m1 = 7e-05): 0.000686 S/m | electrical conductivity (293.15 K, m1 = 9e-05): 0.00082 S/m | electrical conductivity (293.15 K, m1 = 0.0001): 0.000947 S/m | electrical conductivity (293.15 K, m1 = 0.00011): 0.00106 S/m | electrical conductivity (293.15 K, m1 = 0.00016): 0.00146 S/m | electrical conductivity (293.15 K, m1 = 0.00025): 0.00231 ± 0.004 S/m | electrical conductivity (293.15 K, m1 = 0.00047): 0.00432 ± 0.0039 S/m | electrical conductivity (293.15 K, m1 = 0.00077): 0.00695 ± 0.0039 S/m | electrical conductivity (293.15 K, m1 = 0.0015): 0.0134 ± 0.0039 S/m
